From US12077503B2, “Substituted cyclic amides and their use as herbicides” (FMC CORPORATION, priority 2015, dated 2024)

How the values were obtained:
Format in all cases: in vivo
[1] = tested on: ragweed (common ragweed, Ambrosia elatior); assay: Test A preemergence; conditions: for Plant response rating, Ragweed: 125 g ai/ha, preemergence, 0 to 100 scale (0 no effect, 100 complete control); for Ragweed plant response rating (0 to 100 scale): Preemergence, 500 g ai/ha, 0 is no effect, 100 is complete control
Source text: (§1) Seeds of plant species selected from barnyardgrass (Echinochloa crus-galli), Kochia (Kochia scoparia), ragweed (common ragweed, Ambrosia elatior), ryegrass, Italian (Italian ryegrass, Lolium multiflorum), crabgrass, large (Digitaria sanguinalis), giant foxtail (Setaria faberii), green foxtail (Setaria viridis), morningglory (Ipomoea spp.), pigweed (Amaranthus retroflexus), velvetleaf (Abutilon theophrasti), wheat (Triticum aestivum), and corn (Zea mays) were planted into a blend of loam soil and sand and treated preemergence with a directed soil spray using test chemicals formulated in anon-phytotoxic solvent mixture which included a surfactant.
(§2) At the same time, plants selected from these crop and weed species and also blackgrass (Alopecurus myosuroides), and Galium (catchweed bedstraw, Galium aparine) were planted in pots containing the same blend of loam soil and sand and treated with postemergence applications of test chemicals formulated in the same manner. Plants ranged in height from 2 to 10 cm and were in the one- to two-leaf stage for the postemergence treatment. Treated plants and untreated controls were maintained in a greenhouse for approximately 10 d, after which time all treated plants were compared to untreated controls and visually evaluated for injury. Plant response ratings, summarized in Table A, are based on a 0 to 100 scale where 0 is no effect and 100 is complete control. A dash (-) response means no test result.

[2] = tested on: ryegrass, Italian (Italian ryegrass, Lolium multiflorum); assay: Test A preemergence; conditions: for Plant response rating, Ryegrass, Italian: 125 g ai/ha, preemergence, 0 to 100 scale (0 no effect, 100 complete control); for Ryegrass, Italian plant response rating (0 to 100 scale): Preemergence, 500 g ai/ha, 0 is no effect, 100 is complete control
Source text: as §1, §2

Kochia (Kochia scoparia) [3] = assay: Test A preemergence; conditions: for Plant response rating, Kochia: 125 g ai/ha, preemergence, 0 to 100 scale (0 no effect, 100 complete control); for Kochia plant response rating (0 to 100 scale): Preemergence, 500 g ai/ha, 0 is no effect, 100 is complete control
Source text: as §1, §2

[4] = tested on: barnyardgrass (Echinochloa crus-galli); assay: Test A preemergence; conditions: for Plant response rating, Barnyardgrass: 125 g ai/ha, preemergence, 0 to 100 scale (0 no effect, 100 complete control); for Barnyardgrass plant response rating (0 to 100 scale): Preemergence, 500 g ai/ha, 0 is no effect, 100 is complete control
Source text: as §1, §2

[5] = tested on: giant foxtail (Setaria faberii); assay: Test A preemergence; conditions: for Plant response rating, Foxtail, Giant: 125 g ai/ha, preemergence, 0 to 100 scale (0 no effect, 100 complete control); for Foxtail, Giant plant response rating (0 to 100 scale): Preemergence, 500 g ai/ha, 0 is no effect, 100 is complete control
Source text: as §1, §2

[6] = tested on: pigweed (Amaranthus retroflexus); assay: Test A preemergence; conditions: for Plant response rating, Pigweed: 125 g ai/ha, preemergence, 0 to 100 scale (0 no effect, 100 complete control); for Pigweed plant response rating (0 to 100 scale): Preemergence, 500 g ai/ha, 0 is no effect, 100 is complete control
Source text: as §1, §2

[7] = tested on: blackgrass (Alopecurus myosuroides); assay: Test A postemergence
Source text: as §1, §2

[8] = tested on: ragweed (common ragweed, Ambrosia elatior); assay: Test A postemergence
Source text: as §1, §2

[9] = tested on: wheat (Triticum aestivum); assay: Test A postemergence
Source text: as §1, §2

[10] = tested on: ryegrass, Italian (Italian ryegrass, Lolium multiflorum); assay: Test A postemergence
Source text: as §1, §2

Kochia (Kochia scoparia) [11] = assay: Test A postemergence
Source text: as §1, §2

[12] = tested on: barnyardgrass (Echinochloa crus-galli); assay: Test A postemergence
Source text: as §1, §2

[13] = tested on: Galium (catchweed bedstraw, Galium aparine); assay: Test A postemergence
Source text: as §1, §2

corn (Zea mays) = assay: Test A postemergence
Source text: as §1, §2

[14] = tested on: giant foxtail (Setaria faberii); assay: Test A postemergence
Source text: as §1, §2

[15] = tested on: pigweed (Amaranthus retroflexus); assay: Test A postemergence
Source text: as §1, §2

rice (Oryra sativa) = assay: Test B flooded paddy test; conditions: Flood, 250 g ai/ha; 0 to 100 scale where 0 is no effect and 100 is complete control; 13 to 15 d
Method: (§3) Plant species in the flooded paddy test selected from rice (Oryra sativa), sedge, umbrella (small-flower umbrella sedge, Cyperus difformis), ducksalad (Heteranthera limosa), and barnyardgrass (Echinochloa crus-galli) were grown to the 2-leaf stage for testing. At time of treatment, test pots were flooded to 3 cm above the soil surface, treated by application of test compounds directly to the paddy water, and then maintained at that water depth for the duration of the test. Treated plants and controls were maintained in a greenhouse for 13 to 15 d, after which time all species were compared to controls and visually evaluated. Plant response ratings, summarized in Table B, are based on a scale of 0 to 100 where 0 is no effect and 100 is complete control. A dash (-) response means no test result.

[16] = tested on: sedge, umbrella (small-flower umbrella sedge, Cyperus difformis); assay: Test B flooded paddy test; conditions: Flood, 250 g ai/ha; 0 to 100 scale where 0 is no effect and 100 is complete control; 13 to 15 d
Method: as §3

[17] = tested on: ducksalad (Heteranthera limosa); assay: Test B flooded paddy test; conditions: Flood, 250 g ai/ha; 0 to 100 scale where 0 is no effect and 100 is complete control; 13 to 15 d
Method: as §3

[18] = tested on: barnyardgrass (Echinochloa crus-galli); assay: Test B flooded paddy test; conditions: Flood, 250 g ai/ha; 0 to 100 scale where 0 is no effect and 100 is complete control; 13 to 15 d
Method: as §3

[19] = 500 g ai/ha, postemergence, 0 to 100 scale, 0 no effect, 100 complete control
[20] = Postemergence, 125 g ai/ha, visual injury, 0 to 100 scale (0 no effect, 100 complete control), approx. 10 d

SMILES	Plant response rating, Ragweed [1]	Ragweed plant response rating (0 to 100 scale) [1]	Plant response rating, Ryegrass, Italian [2]	Ryegrass, Italian plant response rating (0 to 100 scale) [2]	Plant response rating, Kochia (Kochia (Kochia scoparia) [3])	Kochia plant response rating (0 to 100 scale) (Kochia (Kochia scoparia) [3])	Plant response rating, Barnyardgrass [4]	Barnyardgrass plant response rating (0 to 100 scale) [4]	Plant response rating, Foxtail, Giant [5]	Foxtail, Giant plant response rating (0 to 100 scale) [5]	Plant response rating, Pigweed [6]	Pigweed plant response rating (0 to 100 scale) [6]	Plant response rating, Blackgrass [7, 19]	Plant response rating, Blackgrass [7, 20]	Plant response rating, Ragweed [8, 19]	Plant response rating, Ragweed [8, 20]	Plant response rating, Wheat [9, 19]	Plant response rating, Wheat [9, 20]	Plant response rating, Ryegrass, Italian [10, 19]	Plant response rating, Ryegrass, Italian [10, 20]	further results
Cc1ccc(C2CNC(=O)C2C(=O)Nc2ccc(F)c(F)c2F)cc1F (racemic) [Compound 371]	30	40	0	20	20	60	90	90	90	90	0	20	60	30	30	0	40	0	30	20	Plant response rating, Kochia (Kochia (Kochia scoparia) [11]; [19]): 40; Plant response rating, Kochia (Kochia (Kochia scoparia) [11]; [20]): 20; Plant response rating, Barnyardgrass [12, 19]: 90; Plant response rating, Barnyardgrass [12, 20]: 80; Plant response rating, Galium [13, 19]: 30; Plant response rating, Galium [13, 20]: 30; Plant response rating, Corn (corn (Zea mays); [19]): 60; Plant response rating, Corn (corn (Zea mays); [20]): 20; Plant response rating, Foxtail, Giant [14, 19]: 90; Plant response rating, Foxtail, Giant [14, 20]: 50; Plant response rating, Pigweed [15, 19]: 20; Plant response rating, Pigweed [15, 20]: 0; Plant response rating, Rice (rice (Oryra sativa)): 20; Plant response rating, Sedge, Umbrella [16]: 0; Plant response rating, Ducksalad [17]: 100; Plant response rating, Barnyardgrass [18]: 60
Cc1cccc(C2CNC(=O)C2C(=O)Nc2cccc(F)c2F)c1 (racemic) [Compound 373]	0	30	30	40	0	30	90	90	80	90	0	20	40	20	0	0	70	20	20	30	Plant response rating, Kochia (Kochia (Kochia scoparia) [11]; [19]): 40; Plant response rating, Kochia (Kochia (Kochia scoparia) [11]; [20]): 0; Plant response rating, Barnyardgrass [12, 19]: 80; Plant response rating, Barnyardgrass [12, 20]: 80; Plant response rating, Galium [13, 19]: 30; Plant response rating, Galium [13, 20]: 30; Plant response rating, Corn (corn (Zea mays); [19]): 50; Plant response rating, Corn (corn (Zea mays); [20]): 20; Plant response rating, Foxtail, Giant [14, 19]: 70; Plant response rating, Foxtail, Giant [14, 20]: 40; Plant response rating, Pigweed [15, 19]: 30; Plant response rating, Pigweed [15, 20]: 20; Plant response rating, Rice (rice (Oryra sativa)): 20; Plant response rating, Sedge, Umbrella [16]: 0; Plant response rating, Ducksalad [17]: 100; Plant response rating, Barnyardgrass [18]: 60
CC(C)Oc1cccc(C2CNC(=O)C2C(=O)Nc2ccc(F)cc2F)c1 (racemic) [Compound 377]	0	0	20	60	50	80	90	90	90	90	50	70	70	50	60	40	50	0	50	30	Plant response rating, Kochia (Kochia (Kochia scoparia) [11]; [19]): 60; Plant response rating, Kochia (Kochia (Kochia scoparia) [11]; [20]): 30; Plant response rating, Barnyardgrass [12, 19]: 90; Plant response rating, Barnyardgrass [12, 20]: 90; Plant response rating, Galium [13, 19]: 70; Plant response rating, Galium [13, 20]: 60; Plant response rating, Corn (corn (Zea mays); [19]): 50; Plant response rating, Corn (corn (Zea mays); [20]): 0; Plant response rating, Foxtail, Giant [14, 19]: 80; Plant response rating, Foxtail, Giant [14, 20]: 80; Plant response rating, Pigweed [15, 19]: 30; Plant response rating, Pigweed [15, 20]: 0; Plant response rating, Rice (rice (Oryra sativa)): 25; Plant response rating, Sedge, Umbrella [16]: 0; Plant response rating, Ducksalad [17]: 100; Plant response rating, Barnyardgrass [18]: 60
CCCOc1cccc(C2CNC(=O)C2C(=O)Nc2cccc(F)c2F)c1 (racemic) [Compound 380]	0	0	0	20	0	40	70	90	50	90	0	30	40	30	0	0	20	0	0	0	Plant response rating, Kochia (Kochia (Kochia scoparia) [11]; [19]): 0; Plant response rating, Kochia (Kochia (Kochia scoparia) [11]; [20]): 0; Plant response rating, Barnyardgrass [12, 19]: 80; Plant response rating, Barnyardgrass [12, 20]: 50; Plant response rating, Galium [13, 19]: 50; Plant response rating, Galium [13, 20]: 20; Plant response rating, Corn (corn (Zea mays); [19]): 0; Plant response rating, Corn (corn (Zea mays); [20]): 0; Plant response rating, Foxtail, Giant [14, 19]: 70; Plant response rating, Foxtail, Giant [14, 20]: 30; Plant response rating, Pigweed [15, 19]: 0; Plant response rating, Pigweed [15, 20]: 0; Plant response rating, Rice (rice (Oryra sativa)): 0; Plant response rating, Sedge, Umbrella [16]: 0; Plant response rating, Ducksalad [17]: 0; Plant response rating, Barnyardgrass [18]: 0
